Data on 12 molecules can be found in BindingDB's records for doi:10.1021/jm00115a012 (Research Biochemicals, 1991).

The target in assay [1] is T1, D(2) dopamine receptor (Homo sapiens, UniProt P14416). Nature of the assay: ChEBML_59152. From the text: (§1) Binding affinity against dopamine receptor D2 by using [3H]spiperone as radioligand in caudate-putamen of monkey
Assay [2] addresses D(1A) dopamine receptor. Put plainly: Binding affinity against dopamine receptor D1 by using [3H]-SCH- 23390 as radioligand in caudate-putamen of monkey.
Assay [3] has as its target T1, D(2) dopamine receptor. The description is as §1.

T1 sequence (P14416 whole entry): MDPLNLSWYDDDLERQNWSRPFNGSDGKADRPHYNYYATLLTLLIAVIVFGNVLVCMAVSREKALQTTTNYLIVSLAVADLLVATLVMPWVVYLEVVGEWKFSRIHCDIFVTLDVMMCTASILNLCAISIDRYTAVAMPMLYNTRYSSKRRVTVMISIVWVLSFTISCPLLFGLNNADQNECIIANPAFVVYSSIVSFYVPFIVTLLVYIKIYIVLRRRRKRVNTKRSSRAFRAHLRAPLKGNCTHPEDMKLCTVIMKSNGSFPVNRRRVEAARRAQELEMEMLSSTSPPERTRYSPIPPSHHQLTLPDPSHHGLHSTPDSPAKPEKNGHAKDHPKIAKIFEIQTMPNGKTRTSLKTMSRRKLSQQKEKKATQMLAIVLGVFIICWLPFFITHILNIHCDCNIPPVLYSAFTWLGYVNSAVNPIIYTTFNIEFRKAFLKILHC

Regarding `CN1CCc2cc(Br)c(O)cc2C(c2ccc(NC(=S)Nc3ccc4c(c3)C(=O)OC43c4ccc(O)cc4Oc4cc(O)ccc43)cc2)C1` (stereo not given), in assay [1], the Ki – broadly, a measure of affinity in units of concentration, obtained from inhibition or displacement – was greater than 5000 nM.

`CN1CCc2cc(Br)c(O)cc2C(c2ccc(N)cc2)C1` (stereo not given) had a Ki in assay [1] of 1600 nM.

`O=C1OC2(c3ccc(O)cc3Oc3cc(O)ccc32)c2ccc(NC(=S)Nc3ccc(C4CNCCc5cc(O)c(O)cc54)cc3)cc21` (stereo not given) yielded a Ki in assay [2] of 10000 nM.

Regarding `O=C(CCCN1CCC2(CC1)C(=O)N(CCc1ccc(Nc3ccc([N+](=O)[O-])c4n[o+][n-]c34)cc1)CN2c1ccccc1)c1ccc(F)cc1`, in assay [1], the inhibition constant Ki was 0.66 nM.

The molecule `CCCN(CCc1ccc(Nc2ccc([N+](=O)[O-])c3n[o+][n-]c23)cc1)C1CCc2c(O)cccc2C1` (stereo not given) had a Ki in assay [3] of 0.45 nM.

In assay [1], `CN1CCc2cc(Br)c(O)cc2C(c2ccc(Nc3ccc([N+](=O)[O-])c4n[o+][n-]c34)cc2)C1` (stereo not given) had a Ki of 710 nM.

As for `CCCN(CCc1ccc(NC(=S)Nc2ccc3c(c2)C(=O)OC32c3ccc(O)cc3Oc3cc(O)ccc32)cc1)[C@H]1CCc2c(O)cccc2C1`, the Ki in assay [1] was 4.8 nM.

Consider `CCCN(CCc1ccc(NC(=S)Nc2ccc3c(c2)C(=O)OC32c3ccc(O)cc3Oc3cc(O)ccc32)cc1)[C@@H]1CCc2c(O)cccc2C1`, for which, in assay [3], the Ki stood at 110 nM.

Take `CCCN(CCc1ccc(C)cc1)[C@@H]1CCc2c(O)cccc2C1`: the Ki in assay [3] is 170 nM; in assay [2] it was 4900 nM.

Regarding `CCCN(CCc1ccc(C)cc1)[C@H]1CCc2c(O)cccc2C1`, the inhibition constant Ki in assay [3] is 6.7 nM; in assay [2], 270 nM.

Take `CCCN(CCc1ccc(N)cc1)C1CCc2c(O)cccc2C1` (racemic): the Ki in assay [3] worked out at 6.8 nM; in assay [2], 710 nM.

For `CCCN(CCc1ccc(NC(=S)Nc2ccc3c(c2)C(=O)OC32c3ccc(O)cc3Oc3cc(O)ccc32)cc1)C1CCc2c(O)cccc2C1` (racemic), the Ki in assay [1] was 7 nM.
